Data from US20260159536A1, “AKR1C3-ACTIVATED DNA ALKYLATING AGENT, AND MEDICAL APPLICATION THEREOF” (ASCENTAWITS PHARMACEUTICALS, LTD., priority 2021, published 2026).

Tests used:
[1] = Chiral stability under long-term and accelerated storage conditions; type: physicochemical
Description: Isomer stability under long-term and accelerated conditions was studied.
Compound A and isomers A-P1 and A-P2 were investigated for traits and isomeric stability at −20±5° C., 5° C.±3° C., 25° C.±2° C. (60%±5% RH) and 40° C.±2° C.

[2] = system: human lung cancer NCI-H460 cells; test: In vivo pharmacodynamics, NCI-H460 subcutaneous xenograft model; parameters: species or system BALB/c nude mice; conditions: for Relative tumor volume (x ± S) / T/C (%) / TGI (%) / Tumor volume (x ± S): QWx3, i.v.; for Tumor volume (x ± S): in mm³ (unit assumed)
[3] = system: human liver cancer HepG2 cells; test: In vivo pharmacodynamics, liver cancer HepG2 CDX model; parameters: species or system BALB/c nude mice
Description: Experiment Instruction: BALB/c nude mice were subcutaneously inoculated with human liver cancer HepG2 cells to establish a subcutaneous transplantation tumor model of human liver cancer. […] The efficacy was evaluated according to the relative tumor inhibition rate TGI (%), and the safety was evaluated according to the change in body weight and the death of the animals.

[4] = 25° C. ± 2° C./60% ± 5% RH, 6 months
[5] = 40° C. ± 2° C./75% ± 5% RH, 6 months
[6] = 1.25 mg/kg, QDx5, 2 days off, 2 weeks off, QDx5, i.p., Day 53

O=[N+]([O-])c1ccc(C(OP(=O)(N2CC2)N2CC2)C(F)(F)F)cc1Oc1ccc(-c2ccc(F)cc2)c(F)c1 (racemic) [Compound A]
Isomer peak A-P1 ([1]; 0 month): 49.8% | Isomer peak A-P2 ([1]; 0 month): 50.2% | Isomer peak A-P1 ([1]; 5° C. ± 3° C., 6 months): 49.9% | Isomer peak A-P2 ([1]; 5° C. ± 3° C., 6 months): 50.1% | Isomer transformation ([1]; 5° C. ± 3° C., 6 months): 0.1% | properties and chirality after storage ([1]; 5° C., 25° C./60% RH, 40° C./75% RH, 6 months): essentially unchanged | Isomer peak A-P1 [1, 4]: 49.9% | Isomer peak A-P2 [1, 4]: 50.1% | Isomer transformation [1, 4]: 0.1% | Isomer peak A-P1 [1, 5]: 49.9% | Isomer peak A-P2 [1, 5]: 50.1% | Isomer transformation [1, 5]: 0.1% | Tumor volume ([2]; 5 mg/kg i.v., Day 7): 144.35 mm^3 | Tumor volume ([2]; 5 mg/kg i.v., Day 10): 183.15 mm^3 | Tumor volume ([2]; 5 mg/kg i.v., Day 14): 198.80 mm^3 | Tumor volume ([2]; 5 mg/kg i.v., Day 17): 228.87 mm^3 | Tumor volume ([2]; 5 mg/kg i.v., Day 21): 253.30 mm^3 | Tumor volume ([2]; 5 mg/kg i.v., Day 24): 310.83 mm^3 | Tumor volume ([2]; 5 mg/kg i.v., Day 28): 279.31 mm^3 | Tumor volume ([2]; 5 mg/kg i.v., Day 31): 337.78 mm^3 | Tumor volume ([2]; 5 mg/kg i.v., Day 35): 452.75 mm^3 | Relative tumor volume (x ± S) ([2]; 5 mg/kg, Day 31): 2.45 ± 0.29 | T/C (%) ([2]; 5 mg/kg, Day 31): 18.51% | TGI (%) ([2]; 5 mg/kg, Day 31): 81.49% | Tumor volume (x ± S) ([2]; 5 mg/kg, Day 31): 337.78 ± 54.37 | Tumor volume ([2]; 10 mg/kg i.v., Day 7): 144.21 mm^3 | Tumor volume ([2]; 10 mg/kg i.v., Day 10): 164.75 mm^3 | Tumor volume ([2]; 10 mg/kg i.v., Day 14): 151.95 mm^3 | Tumor volume ([2]; 10 mg/kg i.v., Day 17): 140.29 mm^3 | Tumor volume ([2]; 10 mg/kg i.v., Day 21): 138.66 mm^3 | Tumor volume ([2]; 10 mg/kg i.v., Day 24): 144.36 mm^3 | Tumor volume ([2]; 10 mg/kg i.v., Day 28): 149.16 mm^3 | Tumor volume ([2]; 10 mg/kg i.v., Day 31): 164.13 mm^3 | Tumor volume ([2]; 10 mg/kg i.v., Day 35): 168.68 mm^3 | Relative tumor volume (x ± S) ([2]; 10 mg/kg, Day 31): 1.18 ± 0.27 | TGI (%) ([2]; 10 mg/kg, Day 31): 91.06% | Tumor volume ([2]; 15 mg/kg i.v., Day 7): 145.41 mm^3 | Tumor volume ([2]; 15 mg/kg i.v., Day 10): 171.22 mm^3 | Tumor volume ([2]; 15 mg/kg i.v., Day 14): 167.54 mm^3 | Tumor volume ([2]; 15 mg/kg i.v., Day 17): 161.80 mm^3 | Tumor volume ([2]; 15 mg/kg i.v., Day 21): 157.66 mm^3 | Tumor volume ([2]; 15 mg/kg i.v., Day 24): 151.20 mm^3 | Tumor volume ([2]; 15 mg/kg i.v., Day 28): 134.73 mm^3 | Tumor volume ([2]; 15 mg/kg i.v., Day 35): 108.70 mm^3 | T/C (%) ([2]; 15 mg/kg, Day 31): 6.94% | Tumor volume (x ± S) ([2]; 15 mg/kg, Day 31): 125.90 ± 25.46 | effect on body weights ([2]; 5, 10, 15 mg/kg, at least 31 days): no significant effect on the body weights | Tumor volume ([3]; 1.25 mg/kg i.p., Day 19): 189.54 mm^3 | Tumor volume ([3]; 1.25 mg/kg i.p., Day 22): 315.41 mm^3 | Tumor volume ([3]; 1.25 mg/kg i.p., Day 24): 351.74 mm^3 | Tumor volume ([3]; 1.25 mg/kg i.p., Day 27): 383.10 mm^3 | Tumor volume ([3]; 1.25 mg/kg i.p., Day 31): 366.64 mm^3 | Tumor volume ([3]; 1.25 mg/kg i.p., Day 36): 416.27 mm^3 | Tumor volume ([3]; 1.25 mg/kg i.p., Day 39): 586.80 mm^3 | Tumor volume ([3]; 1.25 mg/kg i.p., Day 42): 782.39 mm^3 | Tumor volume ([3]; 1.25 mg/kg i.p., Day 46): 886.97 mm^3 | Tumor volume ([3]; 1.25 mg/kg i.p., Day 49): 975.41 mm^3 | Tumor volume ([3]; 1.25 mg/kg i.p., Day 53): 1066.23 mm^3 | Relative tumor volume (x ± S) [3, 6]: 5.57 ± 1.26 | T/C (%) [3, 6]: 47.03% | TGI (%) [3, 6]: 52.97% | Tumor volume (x ± S) ([3]; 1.25 mg/kg, QDx5, 2 days off, 2 weeks off, QDx5, i.p., Day 53, in mm³ (unit assumed)): 1066.23 ± 252.18 | Tumor volume ([3]; 2.5 mg/kg i.p., Day 19): 189.31 mm^3 | Tumor volume ([3]; 2.5 mg/kg i.p., Day 22): 292.03 mm^3
